# In EPA's ToxRefDB 2:
# How the values were obtained:
# rabbit [1] = settings: Prenatal developmental toxicity study, dutch, Oral, Gavage/Intubation, dose end: 18 GD
# rat [2] = settings: Subchronic oral toxicity in rodents, sprague dawley, Feed, dose end: 13 week, group: systemic
# mouse [3] = settings: Subchronic oral toxicity in rodents, cd1, Feed, dose end: 6 week, group: systemic
# rat [4] = settings: Sub-acute repeat dose toxicity, fischer, Oral, Gavage/Intubation, dose end: 16 day, group: systemic
# rat [5] = settings: Prenatal developmental toxicity study, sprague dawley, Oral, Gavage/Intubation, dose end: 15 GD
# mouse [6] = settings: Carcinogenicity; b6c3f1; Oral; Gavage; dose end: 103 week; group: systemic; systemic / organ weight / kidney / absolute + systemic / pathology microscopic / kidney / nephropathy + systemic / pathology microscopic / …
# rat [7] = settings: Prenatal developmental toxicity study, wistar, Oral, Gavage/Intubation, dose end: 15 GD
# rat [8] = settings: Subchronic oral toxicity in rodents, fischer, Gavage/Intubation, dose end: 13 week, group: systemic
# mouse [9] = settings: Sub-acute repeat dose toxicity, b6c3f1, Oral, Gavage/Intubation, dose end: 16 day, group: systemic
# rat [10] = settings: Combined chronic toxicity/carcinogenicity, fischer, Oral, Gavage/Intubation, dose end: 103 week, group: systemic
# rat [11] = settings: Subchronic oral toxicity in rodents, fischer, Gavage/Intubation, dose end: 13 week, group: systemic; remark: listed apart in the source
# rabbit [12] = settings: Sub-acute dermal toxicity, new zealand white, Topical, dose end: 21 day, group: systemic, systemic / pathology gross / skin / scabbing + systemic / pathology microscopic / skin / acanthosis + systemic / pathology microscopic / …
# rat [13] = settings: Carcinogenicity; Osborne-Mendel; Oral; Feed; dose end: 80 week; group: systemic; systemic / in life observation / clinical signs / [other] + systemic / in life observation / clinical signs / alopecia + systemic / in life …
# mouse [14] = settings: Prenatal developmental toxicity study, cd1, Oral, Gavage/Intubation, dose end: 17 GD
# rat [15] = settings: Prenatal developmental toxicity study; sprague dawley; Oral; Gavage/Intubation; dose end: 20 GD; group: maternal; systemic / in life observation / body weight / body weight gain
# hamster = settings: Developmental neurotoxicity study; golden syrian; Oral; Gavage/Intubation; dose end: 125 PND; group: cannot be grouped; systemic / in life observation / mortality / mortality
# mouse [16] = settings: Multigenerational reproductive toxicity study, other, Oral, Feed, dose end: 1 generation
# mouse [17] = settings: Carcinogenicity; b6c3f1; Oral; Feed; dose end: 80 week; group: systemic; systemic / in life observation / clinical signs / aggressive behavior + systemic / in life observation / clinical signs / alopecia + …
# rat [18] = settings: Subchronic oral toxicity in rodents, sprague dawley, Gavage/Intubation, dose end: 13 week, group: systemic
# rat [19] = settings: Prenatal developmental toxicity study, sprague dawley, Oral, Gavage/Intubation, dose end: 19 GD
# rat [20] = settings: Prenatal developmental toxicity study, sprague dawley, Oral, Gavage/Intubation, dose end: 19 GD; remark: listed apart in the source
# [21] = group: developmental, developmental / developmental malformation / bone / unossified + systemic / in life observation / body weight / fetal weight
# [22] = group: maternal, systemic / in life observation / body weight / body weight gain + systemic / in life observation / mortality / mortality
# [23] = group: maternal, systemic / in life observation / body weight / body weight gain + systemic / in life observation / mortality / mortality + reproductive / …
# [24] = systemic / hematology / leukocyte (wbc) count differential / leukocyte (wbc)
# [25] = systemic / in life observation / body weight / body weight gain + systemic / pathology microscopic / stomach / [other] + systemic / …
# [26] = systemic / in life observation / clinical signs / piloerection + systemic / organ weight / heart / absolute + systemic / pathology gross / …
# [27] = systemic / organ weight / kidney / absolute + systemic / organ weight / kidney / relative to body weight + systemic / pathology microscopic…
# [28] = systemic / pathology gross / intestine large / dilatation
# [29] = group: developmental, developmental / developmental malformation / general / runts + systemic / in life observation / body weight / fetal weight
# [30] = group: maternal, systemic / in life observation / body weight / body weight + systemic / in life observation / body weight / body weight gain + systemic / in…
# [31] = group: developmental, systemic / in life observation / body weight / fetal weight
# [32] = group: maternal, systemic / in life observation / body weight / body weight gain
# [33] = group: maternal, systemic / in life observation / body weight / body weight gain + systemic / in life observation / clinical signs / mucoid stools + systemic…
# [34] = systemic / in life observation / clinical signs / alopecia + systemic / in life observation / clinical signs / urogenital staining
# [35] = systemic / in life observation / clinical signs / abnormal posture + systemic / in life observation / clinical signs / fur (altered …
# [36] = systemic / pathology microscopic / kidney / nephropathy + systemic / urinalysis / coporphoryin / coporphoryin
# [37] = systemic / clinical chemistry / creatinine / creatinine + systemic / clinical chemistry / urea nitrogen / urea nitrogen + systemic / organ …
# [38] = systemic / clinical chemistry / creatinine / creatinine + systemic / clinical chemistry / urea nitrogen / urea nitrogen + systemic / …
# [39] = group: developmental, developmental / developmental malformation / bone / absent + developmental / developmental malformation / bone / ossification sites + …
# [40] = group: maternal, systemic / in life observation / body weight / body weight gain + systemic / in life observation / mortality / mortality + systemic / organ …
# [41] = group: maternal, systemic / organ weight / liver / relative to body weight
# [42] = group: parental, systemic / in life observation / mortality / mortality
# [43] = group: reproductive, reproductive / reproductive performance / mating / mating + reproductive / offspring survival early / litter size / litter size
# [44] = systemic / pathology microscopic / stomach / edema + systemic / pathology microscopic / stomach / hyperkeratosis + systemic / pathology …
# [45] = group: maternal, systemic / in life observation / clinical signs / salivation + systemic / in life observation / body weight / body weight + systemic / in …
# [46] = group: maternal, reproductive / reproductive performance / estrous cycle / corpora lutea
smiles,measurement,setting,value
Clc1nc(Cl)nc(Nc2ccccc2Cl)n1 [Anilazine],LEL,rabbit [1]; [21],75 mg/kg/day
same,LOAEL,rabbit [1]; [21],75 mg/kg/day
same,NEL,rabbit [1]; [21],40 mg/kg/day
same,NOAEL,rabbit [1]; [21],40 mg/kg/day
same,LEL,rabbit [1]; [22],40 mg/kg/day
same,LOAEL,rabbit [1]; [22],40 mg/kg/day
same,NEL,rabbit [1]; [23],15 mg/kg/day
same,NOAEL,rabbit [1]; [23],15 mg/kg/day
same,LOAEL,rat [2]; [24],45.9 mg/kg/day
same,NOAEL,rat [2]; [24],< 45.9 mg/kg/day
same,NEL,rat [2]; systemic / organ weight / liver / relative to body weight + systemic / organ weight / lung / relative to body weight + systemic / organ …,600 mg/kg/day
same,LOAEL,mouse [3]; [25],1380 mg/kg/day
same,NOAEL,mouse [3]; [25],339 mg/kg/day
same,LEL,mouse [3]; [26],334 mg/kg/day
same,NEL,mouse [3]; [26],< 334 mg/kg/day
Oc1ccc(Cl)cc1Cc1ccccc1 [Clorophene],LOAEL,rat [4]; [27],1000 mg/kg/day
same,NOAEL,rat [4]; [27],500 mg/kg/day
same,LEL,rat [4]; [28],62.5 mg/kg/day
same,NEL,rat [4]; [28],< 62.5 mg/kg/day
same,LEL,rat [5]; [29],1000 mg/kg/day
same,LOAEL,rat [5]; [29],> 1000 mg/kg/day
same,NEL,rat [5]; [29],300 mg/kg/day
same,NOAEL,rat [5]; [29],≥ 1000 mg/kg/day
same,LOAEL,rat [5]; [30],> 1000 mg/kg/day
same,NEL,rat [5]; [30],100 mg/kg/day
same,NOAEL,rat [5]; [30],≥ 1000 mg/kg/day
same,LEL,"rat [5]; group: maternal, systemic / in life observation / body weight / body weight + systemic / in life observation / water consumption / water consumption",300 mg/kg/day
same,LEL,mouse [6],120 mg/kg/day
same,LOAEL,mouse [6],120 mg/kg/day
same,NEL,mouse [6],< 120 mg/kg/day
same,NOAEL,mouse [6],< 120 mg/kg/day
same,LEL,rat [7]; [31],375 mg/kg/day
same,LOAEL,rat [7]; [31],375 mg/kg/day
same,NEL,rat [7]; [31],75 mg/kg/day
same,NOAEL,rat [7]; [31],75 mg/kg/day
same,LEL,rat [7]; [32],75 mg/kg/day
same,LOAEL,rat [7]; [32],75 mg/kg/day
same,NEL,rat [7]; [33],15 mg/kg/day
same,NOAEL,rat [7]; [33],15 mg/kg/day
same,LEL,rat [8]; [34],30 mg/kg/day
same,NEL,rat [8]; [34],< 30 mg/kg/day
same,LOAEL,rat [8]; [27],480 mg/kg/day
same,NOAEL,rat [8]; [27],240 mg/kg/day
same,LOAEL,mouse [9]; [35],> 1000 mg/kg/day
same,NEL,mouse [9]; [35],62.5 mg/kg/day
same,NOAEL,mouse [9]; [35],≥ 1000 mg/kg/day
same,LEL,mouse [9]; [28],125 mg/kg/day
same,NEL,rat [10]; systemic / in life observation / clinical signs / urogenital staining + systemic / organ weight / heart / absolute + systemic / organ weight…,240 mg/kg/day
same,LOAEL,rat [10]; [36],30 mg/kg/day
same,NOAEL,rat [10]; [36],< 30 mg/kg/day
same,LOAEL,rat [11]; [37],240 mg/kg/day
same,NOAEL,rat [11]; [37],120 mg/kg/day
same,LEL,rat [11]; [38],30 mg/kg/day
same,NEL,rat [11]; [38],< 30 mg/kg/day
same,LEL,rabbit [12],5 mg/kg/day
same,LOAEL,rabbit [12],5 mg/kg/day
same,NEL,rabbit [12],1 mg/kg/day
same,NOAEL,rabbit [12],1 mg/kg/day
ClC1=C(Cl)[C@]2(Cl)[C@@H]3[C@H]4C[C@H]([C@@H]5O[C@H]45)[C@@H]3[C@@]1(Cl)C2(Cl)Cl [Endrin],LEL,rat [13],0.125 mg/kg/day
same,LOAEL,rat [13],> 0.25 mg/kg/day
same,NEL,rat [13],< 0.125 mg/kg/day
same,NOAEL,rat [13],≥ 0.25 mg/kg/day
same,LEL,mouse [14]; [39],1 mg/kg/day
same,LOAEL,mouse [14]; [39],> 2 mg/kg/day
same,NEL,mouse [14]; [39],0.5 mg/kg/day
same,NOAEL,mouse [14]; [39],≥ 2 mg/kg/day
same,LOAEL,mouse [14]; [40],> 2 mg/kg/day
same,NOAEL,mouse [14]; [40],≥ 2 mg/kg/day
same,LEL,mouse [14]; [41],0.5 mg/kg/day
same,NEL,mouse [14]; [41],< 0.5 mg/kg/day
same,LEL,rat [15],0.3 mg/kg/day
same,LOAEL,rat [15],> 0.45 mg/kg/day
same,NEL,rat [15],0.15 mg/kg/day
same,NOAEL,rat [15],≥ 0.45 mg/kg/day
same,LEL,hamster,1.5 mg/kg/day
same,LOAEL,hamster,> 1.5 mg/kg/day
same,NOAEL,hamster,≥ 1.5 mg/kg/day
same,LEL,mouse [16]; [42],0.75 mg/kg/day
same,LOAEL,mouse [16]; [42],> 0.75 mg/kg/day
same,NEL,mouse [16]; [42],< 0.75 mg/kg/day
same,NOAEL,mouse [16]; [42],≥ 0.75 mg/kg/day
same,LEL,mouse [16]; [43],0.75 mg/kg/day
same,LOAEL,mouse [16]; [43],> 0.75 mg/kg/day
same,NEL,mouse [16]; [43],< 0.75 mg/kg/day
same,NOAEL,mouse [16]; [43],≥ 0.75 mg/kg/day
same,LEL,mouse [17],0.24 mg/kg/day
same,LOAEL,mouse [17],> 0.48 mg/kg/day
same,NEL,mouse [17],< 0.24 mg/kg/day
same,NOAEL,mouse [17],≥ 0.48 mg/kg/day
"O=C(CBr)OCC=CCOC(=O)CBr [1,4-Bis(bromoacetoxy)-2-butene]",NEL,rat [18]; systemic / clinical chemistry / calcium / calcium + systemic / clinical chemistry / glucose / glucose + systemic / clinical chemistry / urea…,39.1 mg/kg/day
same,LOAEL,rat [18]; [44],4.5 mg/kg/day
same,NOAEL,rat [18]; [44],< 4.5 mg/kg/day
same,LEL,rat [19]; [31],35 mg/kg/day
same,LOAEL,rat [19]; [31],35 mg/kg/day
same,NEL,rat [19]; [31],20 mg/kg/day
same,NOAEL,rat [19]; [31],20 mg/kg/day
same,LOAEL,"rat [19]; group: maternal, systemic / in life observation / clinical signs / salivation",20 mg/kg/day
same,NEL,rat [19]; [45],5 mg/kg/day
same,NOAEL,rat [19]; [45],5 mg/kg/day
same,LEL,"rat [19]; group: maternal, systemic / in life observation / clinical signs / salivation + systemic / in life observation / clinical signs / fur (altered appearance) + …",20 mg/kg/day
same,LEL,rat [20]; [31],50 mg/kg/day
same,LOAEL,rat [20]; [31],50 mg/kg/day
same,NEL,rat [20]; [31],25 mg/kg/day
same,NOAEL,rat [20]; [31],25 mg/kg/day
same,LEL,rat [20]; [46],25 mg/kg/day
same,NEL,rat [20]; [46],< 25 mg/kg/day
same,LOAEL,rat [20]; [30],50 mg/kg/day
same,NOAEL,rat [20]; [30],25 mg/kg/day
